The source made the active and inactive calls. The rule behind the calls is not given here.

In experiment [1] the test system is ECa-109 cell line. Put plainly: Induction of ROS-mediated apoptosis in human ECa-109 cells assessed as necrotic cells at 4 uM incubated for 48 hrs in presence of NAC by annexin V-PE and 7-AAD staining based flow cytometry analysis (reference value: 1.09 %). It counts as functional. A general note: Flow cytometry measures light scatter and fluorescence of single cells or particles in a stream.

Experiment [2] relates to ECa-109 cell line. Put plainly: Induction of cell cycle arrest in human ECa-109 cells assessed as accumulation in G0/G1 phase at 2 uM incubated for 48 hrs by PI staining based flow cytometry analysis (reference value: 52.28 %). It counts as functional.
Experiment [3] deals with ECa-109 cell line. Put plainly: Induction of ROS-mediated apoptosis in human ECa-109 cells assessed as viable cells at 1 uM incubated for 48 hrs by annexin V-PE and 7-AAD staining based flow cytometry analysis (reference value: 92.7 %). It counts as functional. The conditions noted are these: read-out: Activity.
Experiment [4] has as its system ECa-109 cell line. Put plainly: Induction of ROS-mediated apoptosis in human ECa-109 cells assessed as early apoptotic cells at 1 uM incubated for 48 hrs by annexin V-PE and 7-AAD staining based flow cytometry analysis (reference value: 2.70 %). It counts as functional.
The test system of experiment [5] is ECa-109 cell line. Put plainly: Induction of apoptosis in human ECa-109 cells assessed as necrotic cells at 2 uM incubated for 48 hrs by annexin-V-FITC and PI staining based fluorescence microscopic analysis (reference value: 1.19 %). The experiment is classed as functional.
For experiment [6], the system named is ECa-109 cell line. Put plainly: Induction of apoptosis in human ECa-109 cells assessed as decrease in caspase-8 incubated for 48 hrs by Western blot analysis. The experiment is classed as functional, cell-based. The conditions noted are these: dose 1-4 µM. Background: A western blot detects proteins with antibodies after separation by electrophoresis.
Experiment [7] deals with ECa-109 cell line. Put plainly: Induction of ROS-mediated apoptosis in human ECa-109 cells assessed as late apoptotic cells at 2 uM incubated for 48 hrs in presence of NAC by annexin V-PE and 7-AAD staining based flow cytometry analysis (reference value: 2.98 %). The experiment is classed as functional.
Experiment [8] concerns ECa-109 cell line. Put plainly: Induction of apoptosis in human ECa-109 cells assessed as upregulation of Bax incubated for 48 hrs by Western blot analysis. The conditions noted are these: dose 1-4 µM. The experiment is classed as functional, cell-based.
The test system of experiment [9] is ECa-109 cell line. Put plainly: Induction of apoptosis in human ECa-109 cells assessed as decrease in caspase-3 incubated for 48 hrs by Western blot analysis. It counts as functional, cell-based. Conditions: dose 1-4 µM.
Experiment [10] concerns ECa-109 cell line. Put plainly: Induction of mitochondrial membrane potential disruption in human ECa-109 cells incubated for 48 hrs by JC-1 dye based flow cytometry analysis. The conditions noted are these: Mitochondria, dose 1-4 µM.
Experiment [11] concerns ECa-109 cell line. Put plainly: Induction of cell cycle arrest in human ECa-109 cells assessed as accumulation in G2/M phase at 4 uM incubated for 48 hrs by PI staining based flow cytometry analysis (reference value: 8.39 %). The experiment is classed as functional.
In experiment [12] the test system is ECa-109 cell line. Put plainly: Induction of apoptosis in human ECa-109 cells assessed as downregulation of Bcl-xl incubated for 48 hrs by Western blot analysis. It counts as functional, cell-based. Conditions: dose 1-4 µM.
Experiment [13] relates to ECa-109 cell line. Put plainly: Induction of cell cycle arrest in human ECa-109 cells assessed as accumulation in S phase at 2 uM incubated for 48 hrs by PI staining based flow cytometry analysis (reference value: 39.33 %). The experiment is classed as functional.
Experiment [14] relates to ECa-109 cell line. Put plainly: Induction of apoptosis in human ECa-109 cells at 1 to 4 uM incubated for 48 hrs by AO/PI staining based fluorescence microscopic analysis. It counts as functional, cell-based. The conditions noted are these: dose 1-4 µM.
The test system of experiment [15] is ECa-109 cell line. Put plainly: Induction of ROS-mediated apoptosis in human ECa-109 cells assessed as early apoptotic cells at 4 uM incubated for 48 hrs in presence of NAC by annexin V-PE and 7-AAD staining based flow cytometry analysis (reference value: 1.90 %). It counts as functional.
In experiment [16] the test system is SGC-7901. Put plainly: Induction of ROS generation in human SGC-7901 cells incubated for 48 hrs by DCFH-DA staining based fluorescence microscopic analysis. The experiment is classed as functional, cell-based. The conditions noted are these: dose 1-4 µM.
Experiment [17] concerns SGC-7901. Put plainly: Induction of ROS-mediated apoptosis in human SGC-7901 cells assessed as late apoptotic cells at 2 uM incubated for 48 hrs by annexin V-PE and 7-AAD staining based flow cytometry analysis (reference value: 3.82 %). The experiment is classed as functional.
The subject of experiment [18] is SGC-7901. Put plainly: Induction of apoptosis in human SGC-7901 cells assessed as early apoptotic cells at 1 uM incubated for 48 hrs by annexin-V-FITC and PI staining based fluorescence microscopic analysis (reference value: 1.87 %). It counts as functional.
The subject of experiment [19] is SGC-7901. Put plainly: Induction of ROS-mediated apoptosis in human SGC-7901 cells assessed as viable cells at 2 uM incubated for 48 hrs in presence of NAC by annexin V-PE and 7-AAD staining based flow cytometry analysis (reference value: 94.8 %). It counts as functional. The conditions noted are these: read-out: Activity.
Experiment [20] concerns SGC-7901. Put plainly: Induction of apoptosis in human SGC-7901 cells assessed as concentrated chromatin at 1 to 4 uM incubated for 48 hrs by Hoechst staining based fluorescence microscopic analysis. The experiment is classed as functional, cell-based. Conditions: dose 1-4 µM.
Experiment [21] relates to SGC-7901. Put plainly: Induction of ROS-mediated apoptosis in human SGC-7901 cells assessed as necrotic cells at 1 uM incubated for 48 hrs by annexin V-PE and 7-AAD staining based flow cytometry analysis (reference value: 0.733 %). The experiment is classed as functional.
The test system of experiment [22] is SGC-7901. Put plainly: Induction of cell cycle arrest in human SGC-7901 cells assessed as accumulation in S phase at 2 uM incubated for 48 hrs by PI staining based flow cytometry analysis (reference value: 31.13 %). It counts as functional.
For experiment [23], the system named is SGC-7901. Put plainly: Induction of cell cycle arrest in human SGC-7901 cells assessed as accumulation in G2/M phase at 1 uM incubated for 48 hrs by PI staining based flow cytometry analysis (reference value: 11.48 %). The experiment is classed as functional.
For experiment [24], the system named is SGC-7901. Put plainly: Induction of cell cycle arrest in human SGC-7901 cells assessed as accumulation in S phase at 1 uM incubated for 48 hrs by PI staining based flow cytometry analysis (reference value: 31.13 %). The experiment is classed as functional.
For experiment [25], the system named is SGC-7901. Put plainly: Induction of apoptosis in human SGC-7901 cells assessed as late apoptotic cells incubated for 48 hrs by annexin-V-FITC and PI staining based fluorescence microscopic analysis. It counts as functional, cell-based. The conditions noted are these: dose 1-4 µM.
Experiment [26] has as its system SGC-7901. Put plainly: Induction of cell cycle arrest in human SGC-7901 cells assessed as accumulation in G0/G1 phase at 4 uM incubated for 48 hrs by PI staining based flow cytometry analysis (reference value: 57.39 %). It counts as functional.
Experiment [27] relates to SGC-7901. Put plainly: Induction of ROS-mediated apoptosis in human SGC-7901 cells assessed as viable cells at 1 uM incubated for 48 hrs in presence of NAC by annexin V-PE and 7-AAD staining based flow cytometry analysis (reference value: 94.8 %). It counts as functional. Conditions: read-out: Activity.

With `COc1ccccc1Cn1n[n+](C)c2c1C(C)(C)[C@@H]1CC[C@]3(C)[C@H](CC[C@@H]4[C@H]5[C@H]6OC[C@@]5(CCC6(C)C)CC[C@]43C)[C@@]1(C)C2.[I-]`, the Activity was 3.83% in the experiment with ECa-109 cell line [1]; 42.96% in the experiment with ECa-109 cell line [2]; 11.6% in the experiment with ECa-109 cell line [4]; 1.32% with ECa-109 cell line [5]; “Dose-dependent effect” in the experiment on ECa-109 cell line [6]; 18.2% in the experiment on ECa-109 cell line [7]. In addition, the Activity entry in the experiment with ECa-109 cell line [8] is “Dose-dependent effect”; in the experiment on ECa-109 cell line [9], “Dose-dependent effect”; with ECa-109 cell line [10], “Dose-dependent effect”; in the experiment on ECa-109 cell line [11], 22.73%; in the experiment with ECa-109 cell line [12], “Dose-dependent effect”; in the experiment on ECa-109 cell line [13] it was 40.19%. The Activity with ECa-109 cell line [15] is 3.5%. The viability at 1 µM in the experiment on ECa-109 cell line [3] stood at 66.9%. Moreover, the outcome in the experiment with ECa-109 cell line [14] was Active.

Consider `C[n+]1nn(Cc2c(F)cccc2Cl)c2c1C[C@]1(C)[C@H]3CC[C@@H]4[C@H]5[C@H]6OC[C@@]5(CCC6(C)C)CC[C@@]4(C)[C@]3(C)CC[C@H]1C2(C)C.[I-]`, for which the Activity entry was “Dose-dependent effect” with SGC-7901 [16]; 12.3% in the experiment on SGC-7901 [17]; 10.7% with SGC-7901 [18]; 0.838% in the experiment on SGC-7901 [21]; 15.76% in the experiment with SGC-7901 [22]; 5.39% with SGC-7901 [23]. Further, the Activity in the experiment with SGC-7901 [24] was 14.19%; with SGC-7901 [25], “Dose-dependent effect”; in the experiment with SGC-7901 [26] it was 59.38%. Besides, in the experiment on SGC-7901 [19], the viability at 2 µM was 71.3%. Further, the outcome with SGC-7901 [20] was Active. Besides, the viability at 1 µM in the experiment with SGC-7901 [27] is 87.7%.
